Reference: PubChem BioAssay (NCI)
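How tested: cells in 96-well plates exposed to compound for 48 hours at five concentrations. The concentration for 50% growth inhibition is given as GI50. TGI is the concentration that stops growth completely.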

Key:
Assay in all cases: NCI tumour cell line growth inhibition, 48 h
HOP-62 NSCLC = test system: HOP-62 NSCLC
HOP-92 NSCLC = test system: HOP-92 NSCLC
OVCAR-3 ovarian = test system: OVCAR-3 ovarian
SNB-19 CNS = test system: SNB-19 CNS
SNB-75 CNS = test system: SNB-75 CNS
SR leukemia = test system: SR leukemia
TK-10 renal = test system: TK-10 renal
HS 578T breast = test system: HS 578T breast
NCI/ADR-RES ovarian = test system: NCI/ADR-RES ovarian
PC-3 prostate = test system: PC-3 prostate

Question: With `CCOC(=O)[CH-]C(=O)C12CC3CC(CC(C3)C1)C2.CCOC(=O)[CH-]C(=O)C12CC3CC(CC(C3)C1)C2.CC[O-].CC[O-].[Ti+4]` as the compound, how does the GI50 (HOP-62 NSCLC) read?
Answer: > 100 µM

Question: And the TGI (HOP-62 NSCLC)?
Answer: > 100 µM

Question: And the GI50 (HOP-92 NSCLC)?
Answer: > 100 µM

Question: And the TGI (HOP-92 NSCLC)?
Answer: > 100 µM

Question: What about the GI50 (OVCAR-3 ovarian) of the same compound?
Answer: > 100 µM

Question: And the TGI (OVCAR-3 ovarian)?
Answer: > 100 µM

Question: And the GI50 (SNB-19 CNS)?
Answer: > 100 µM

Question: What about the TGI (SNB-19 CNS) of the same compound?
Answer: > 100 µM

Question: What about the GI50 (SNB-75 CNS) of the same compound?
Answer: 36.9 µM

Question: What about the TGI (SNB-75 CNS) of the same compound?
Answer: > 100 µM

Question: What about the GI50 (SR leukemia) of the same compound?
Answer: > 100 µM

Question: What about the TGI (SR leukemia) of the same compound?
Answer: > 100 µM

Question: What about the GI50 (TK-10 renal) of the same compound?
Answer: > 100 µM

Question: What about the TGI (TK-10 renal) of the same compound?
Answer: > 100 µM

Question: Which results are given for `COc1ccc(NC(=O)CC/C(CC(=O)c2ccco2)=N/NC(=O)C(N)=O)cc1`?
Answer: TGI (HOP-62 NSCLC): > 100 µM; TGI (OVCAR-3 ovarian): > 100 µM; TGI (SNB-19 CNS): > 100 µM; TGI (SNB-75 CNS): > 100 µM; TGI (TK-10 renal): > 100 µM

Question: With `C=C(C)C1CC2(C)C(C)CC(O)CC2C(OC(=O)C=C(C)C)C1O` (stereo unspecified) as the compound, how does the TGI (HOP-92 NSCLC) read?
Answer: > 100 µM

Question: And the TGI (HS 578T breast)?
Answer: > 100 µM

Question: And the TGI (NCI/ADR-RES ovarian)?
Answer: > 100 µM

Question: What about the TGI (PC-3 prostate) of the same compound?
Answer: > 100 µM

Question: What about the TGI (SNB-19 CNS) of the same compound?
Answer: > 100 µM

Question: What about the TGI (SNB-75 CNS) of the same compound?
Answer: 40.5 µM

Question: What about the TGI (SR leukemia) of the same compound?
Answer: 51.9 µM

Question: And the TGI (TK-10 renal)?
Answer: > 100 µM

Question: How did the GI50 (HOP-62 NSCLC) turn out when `O=c1[nH]c2ccccc2cc1-c1nc2ccc(Cl)cc2[nH]1` was run?
Answer: 6.79 µM

Question: And the TGI (HOP-62 NSCLC)?
Answer: 59.3 µM

Question: And the GI50 (HOP-92 NSCLC)?
Answer: 1.48 µM

Question: What about the TGI (HOP-92 NSCLC) of the same compound?
Answer: 9.29 µM

Question: What about the GI50 (NCI/ADR-RES ovarian) of the same compound?
Answer: 6.09 µM

Question: What about the TGI (NCI/ADR-RES ovarian) of the same compound?
Answer: > 100 µM

Question: What about the GI50 (OVCAR-3 ovarian) of the same compound?
Answer: 2.37 µM

Question: And the TGI (OVCAR-3 ovarian)?
Answer: 7.25 µM

Question: And the GI50 (PC-3 prostate)?
Answer: 3.71 µM

Question: And the TGI (PC-3 prostate)?
Answer: 29.1 µM

Question: And the GI50 (SNB-19 CNS)?
Answer: 29.8 µM

Question: What about the TGI (SNB-19 CNS) of the same compound?
Answer: > 100 µM

Question: And the GI50 (SNB-75 CNS)?
Answer: 2.98 µM

Question: And the TGI (SNB-75 CNS)?
Answer: > 100 µM

Question: And the GI50 (TK-10 renal)?
Answer: 2.51 µM

Question: What about the TGI (TK-10 renal) of the same compound?
Answer: > 100 µM

Question: Which TGI (HOP-62 NSCLC) does the source give for `Cc1ccc(S(=O)(=O)N/N=C2\CCCCC23CCC(=O)NC3)cc1` (stereo unspecified) here?
Answer: > 100 µM

Question: And the TGI (OVCAR-3 ovarian)?
Answer: > 100 µM

Question: And the TGI (SNB-19 CNS)?
Answer: > 100 µM

Question: What about the TGI (SNB-75 CNS) of the same compound?
Answer: > 100 µM

Question: And the TGI (SR leukemia)?
Answer: > 100 µM

Question: What about the TGI (TK-10 renal) of the same compound?
Answer: > 100 µM

Question: `Cc1cc(Cl)ccc1OCC(=O)Nc1nc2c(Cl)cccc2s1` was tested. Which GI50 (HOP-62 NSCLC) did it give?
Answer: 19.6 µM

Question: And the TGI (HOP-62 NSCLC)?
Answer: 55.1 µM

Question: What about the GI50 (HOP-92 NSCLC) of the same compound?
Answer: 21 µM

Question: What about the TGI (HOP-92 NSCLC) of the same compound?
Answer: 97.5 µM

Question: And the GI50 (HS 578T breast)?
Answer: > 100 µM

Question: And the TGI (HS 578T breast)?
Answer: > 100 µM

Question: What about the GI50 (NCI/ADR-RES ovarian) of the same compound?
Answer: 23.8 µM

Question: And the TGI (NCI/ADR-RES ovarian)?
Answer: > 100 µM

Question: And the GI50 (OVCAR-3 ovarian)?
Answer: 28.1 µM

Question: What about the TGI (OVCAR-3 ovarian) of the same compound?
Answer: 93.8 µM

Question: And the GI50 (PC-3 prostate)?
Answer: 8.89 µM

Question: And the TGI (PC-3 prostate)?
Answer: > 100 µM

Question: What about the GI50 (SNB-19 CNS) of the same compound?
Answer: 31.2 µM

Question: What about the TGI (SNB-19 CNS) of the same compound?
Answer: 72 µM

Question: What about the GI50 (SNB-75 CNS) of the same compound?
Answer: 23.7 µM

Question: And the TGI (SNB-75 CNS)?
Answer: > 100 µM

Question: What about the GI50 (TK-10 renal) of the same compound?
Answer: 61.3 µM

Question: What about the TGI (TK-10 renal) of the same compound?
Answer: > 100 µM

Question: What does the source list for `CN(C)C/C=C/C(=O)Nc1ccc(C(=O)N[C@@]2(C)CCC[C@@H](Nc3ncc(Cl)c(-c4c[nH]c5ccccc45)n3)C2)nc1`?
Answer: GI50 (HOP-92 NSCLC): < 0.0109 µM; TGI (HOP-92 NSCLC): 0.041 µM; GI50 (HS 578T breast): 0.022 µM; TGI (HS 578T breast): 0.0877 µM; GI50 (PC-3 prostate): < 0.01 µM; TGI (PC-3 prostate): 0.0833 µM; GI50 (SNB-19 CNS): 0.0163 µM; TGI (SNB-19 CNS): 1.07 µM; GI50 (SNB-75 CNS): 0.0137 µM; TGI (SNB-75 CNS): 0.0427 µM; GI50 (SR leukemia): < 0.01 µM; TGI (SR leukemia): 1.09 µM; GI50 (TK-10 renal): 0.0153 µM; TGI (TK-10 renal): 1.11 µM

Question: Which results are given for `N/N=C\c1c2ccccc2c(=O)n2c1oc1ccccc12`?
Answer: GI50 (HOP-62 NSCLC): 16.9 µM; TGI (HOP-62 NSCLC): 32.9 µM; GI50 (HOP-92 NSCLC): 18.9 µM; TGI (HOP-92 NSCLC): 38.7 µM; GI50 (NCI/ADR-RES ovarian): 16.9 µM; TGI (NCI/ADR-RES ovarian): 38.1 µM; GI50 (OVCAR-3 ovarian): 14.7 µM; TGI (OVCAR-3 ovarian): 28 µM; GI50 (PC-3 prostate): 12.7 µM; TGI (PC-3 prostate): 26.4 µM; GI50 (SNB-19 CNS): 17.8 µM; TGI (SNB-19 CNS): 38.7 µM; GI50 (SNB-75 CNS): 11.5 µM; TGI (SNB-75 CNS): 31 µM; GI50 (SR leukemia): 5.61 µM; TGI (SR leukemia): 26 µM; GI50 (TK-10 renal): 18.7 µM; TGI (TK-10 renal): 34.3 µM

Question: For `COc1ccc([C@@]2(O)c3c(ccc(O)c3OC)[C@H]2OC)c(OC)c1`, which TGI (HOP-62 NSCLC) is on record?
Answer: > 100 µM

Question: And the TGI (HOP-92 NSCLC)?
Answer: > 100 µM

Question: What about the TGI (OVCAR-3 ovarian) of the same compound?
Answer: > 100 µM

Question: What about the TGI (SNB-19 CNS) of the same compound?
Answer: > 100 µM

Question: What about the TGI (SNB-75 CNS) of the same compound?
Answer: > 100 µM

Question: And the TGI (SR leukemia)?
Answer: > 100 µM

Question: And the TGI (TK-10 renal)?
Answer: > 100 µM
